From patent US9056865B2, “Pyridine-2-derivatives as smoothened receptor modulators” (Pfizer Inc., priority 2010, dated 2015)

Legend:
human Smo = human Smo (Homo sapiens (Human), UniProt Q99835); experiment: Smo radioligand competition binding assay; conditions: for inhibition at 0.05 µM: 0.05 μM test compound, read-out: Smo % inh. @ 0.05 μM
Description: Smo Radioligand Competition Binding Assay
Membranes were prepared from a stable cell line created in HEK293FlpIn-TetR cells (Invitrogen) using Flp recombinase-mediated insertion of the pSecTag-FRT/V5-His vector containing a cDNA encoding amino acids […] of human Smo fused to the murine Igk leader sequence to produce a cell surface expressed Smo 181-781 protein. Hygromycin-resistant clones were obtained and stained for LacZ expression (no expression indicates a correct knock-in of fusion cDNA). LacZ-negative cells were analyzed for binding tritiated Smo antagonists. For membrane preparation, the HEK293 cells expressing Smo 181-781 were grown to 90% confluence in nine to fifteen 245 mm×245 mm×22 mm dishes, washed with Dulbecco's PBS (15 mL per dish) and harvested via scraping in 10 mL of DPBS. The cells were collected and centrifuged at 1500 rpm (400×g) for 10 min at 4° C. The cell pellets were re-suspended in 40 mL of cold DPBS and washed by centrifugation at 2300 rpm (950×g max) for 10 minutes at 4° C. The supernatant was aspirated and the cell pellet was snap frozen in a methanol/dry ice bath and stored at −70° C. For membrane preparation, 15 mL of Membrane Preparation Buffer (50 mM Tris-HCl pH 7.5, 250 mM sucrose with Roche complete protease cocktail tablets) was added to the tube containing the cell pellet, then cells are rapidly thawed, and homogenized using an Ultra-Turrax T8 (IKA Labortechnik) set on “6” for 15 seconds for 5-6 times in icy water bath. This homogenate was diluted up to 50 mL using Membrane Preparation Buffer and centrifuged at 35,000 rpm in a Beckman Ti45 rotor (140,000×g) for 35 minutes at 4° C. followed by aspiration of the supernatant and re-suspension of the pellet in 5 mL of Assay Buffer (50 mM Tris-HCl pH 7.5, 100 mM NaCl, 25 mM MgCl2, 1 mM EDTA, and 0.1% protease free bovine serum albumin). The re-suspended pellet was then homogenized in a glass tissue grinder. The re-suspended membranes were aliquoted (0.5 mL aliquots), snap frozen and stored at −70° C. Total protein in the membrane preparation was determined using the Pierce BCA protein assay (Pierce Chemical).
For the binding competition assay, 100 μL of Assay Buffer was added to all the wells of a 96 well GF/B filter plate (Millipore MultiScreen-HTS-FB cat# MSFBN6B50) for 10 minutes to pre-wet the filter prior to evacuation of the buffer (8 inches Hg for 8 seconds). To the pre-wet wells is added: 20 μL of Assay Buffer, 10 μL diluted test agent, 20 μL of a tritiated Smo antagonist (15 nM stock solution), and 50 μL of membrane preparation (40 μg total protein per well). The plates are sealed and mixed at room temperature for 5 min, incubated at room temperature for 2 hours, then washed 5 times with 100 μL/each of wash buffer and vacuum dried for 8 seconds at 8 inches Hg. The plate is then dried for one hour in a 60° C. oven prior to the addition of 45 μL of Microscint 20 (Packard, #6013621) to each well and incubation at RT for 30 minutes to 1 hour. The plate is counted in a TopCount scintillation counter (Perkin Elmer).
Data analysis uses Excel for % Inhibition and Graphpad Prism for IC50 calculation. Total binding (TB, in the absence of inhibitors)=average of tritiated Smo antagonist 3 nM+Smo membrane (40 μg/wells (approx 5000-7000 CPM)). Non-specific binding (NSB)=average of tritiated Smo antagonist (3 nM)+cold Smo antagonist (30 μM)+Smo membrane (approx 600-1200 CPM). Specific binding (SB)=(total binding−non-specific binding). % Inhibition=[1−(compound Specific binding/control Specific binding)]×100%. IC50 is calculated by fitting the data to the four parameter sigmoidal dose-response curve (variable slope) Y=Bottom+(Top-Bottom)/(1+10^((LogEC50−X)*HillSlope)). X is the logarithm of the inhibitor concentration. Y is the response; Y starts at Bottom and goes to Top with a sigmoid shape.

Gli-Luc/MEF cells = experiment: Gli-Luc/MEF assay; assay type: cell-based, mouse; conditions: Mus musculus, MEF; Shh-stimulated luciferase, 48 hours
Description: The Gli-Luc/MEF cells obtained from Gli-Luc transgenic mice contain a luciferase reporter gene under the control of the Gli response element. Luciferase activity stimulated with Sonic hedgehog ligand was inhibited by Smo inhibitors, and IC50 was subsequently calculated.
Plates were incubated at 37° C. and 5% CO2 overnight. On day two, cells were dosed with test compounds at a final concentration ranging from 3 μM to 50 μM at a 3-time series dilution. Immediately after dosing cells with compounds, recombinant mouse sonic hedgehog (Shh, R&D Systems 464-SH) was added to a final concentration of 2 μg/mL. The cells were incubated with compounds and Shh for 48 hours at 37° C. and 5% CO2. Luciferase assays were conducted on Day 4 using the Bright-Glo Luciferase assay system (Promega E2620) according to Promega's protocol. Briefly, Bright-Glo luciferase reagent was made up and 25 μL were added to each well of the 384-well plate containing media. Plates were kept at room temperature for 5 minutes, and then read on an Envision Luminescence plate reader (Perkin-Elmer). IC50 of the inhibition was calculated by using GraphPad Prism.

Sequence of human Smo (Q99835 181-787): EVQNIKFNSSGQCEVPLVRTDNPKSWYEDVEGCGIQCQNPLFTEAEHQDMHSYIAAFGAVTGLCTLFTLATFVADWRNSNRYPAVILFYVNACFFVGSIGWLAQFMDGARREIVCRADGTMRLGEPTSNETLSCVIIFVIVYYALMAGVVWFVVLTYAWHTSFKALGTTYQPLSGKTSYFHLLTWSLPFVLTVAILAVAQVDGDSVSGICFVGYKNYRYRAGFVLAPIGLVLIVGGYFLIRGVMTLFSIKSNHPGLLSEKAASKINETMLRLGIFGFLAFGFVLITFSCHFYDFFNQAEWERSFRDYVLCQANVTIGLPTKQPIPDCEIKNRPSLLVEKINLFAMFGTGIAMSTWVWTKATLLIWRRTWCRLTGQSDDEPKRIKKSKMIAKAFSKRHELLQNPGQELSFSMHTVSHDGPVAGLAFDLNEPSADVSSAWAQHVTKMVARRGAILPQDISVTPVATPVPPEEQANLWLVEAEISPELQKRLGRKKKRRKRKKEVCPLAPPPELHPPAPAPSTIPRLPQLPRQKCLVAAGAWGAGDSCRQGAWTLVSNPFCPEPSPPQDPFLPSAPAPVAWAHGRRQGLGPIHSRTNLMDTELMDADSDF

## COCC(=O)N1CCN(c2cc(-c3ncccc3C)c(Cl)cn2)CC1 [Example A-28, 5′-chloro-2′-[4-(methoxyacetyl)piperazin-1-yl]-3-methyl-2,4′-bipyridine]
Human Smo
  IC50: 212 nM
  inhibition at 0.05 µM: 68.9%
Gli-Luc/MEF cells
  IC50: 146 nM

## COCCC(=O)N1CCN(c2cc(-c3ncccc3C)c(Cl)cn2)CC1 [Example A-29, 5′-chloro-2′-[4-(3-methoxypropanoyl)piperazin-1-yl]-3-methyl-2,4′-bipyridine]
Human Smo
  IC50: 52.3 nM
  inhibition at 0.05 µM: 89.3%
Gli-Luc/MEF cells
  IC50: 42.5 nM

## Cc1cccnc1-c1nc(N2CCC(O)CC2)ncc1Cl [Example A-30, 1-[5-chloro-4-(3-methylpyridin-2-yl)pyrimidin-2-yl]piperidin-4-ol]
Human Smo
  IC50: 160 nM
  inhibition at 0.05 µM: 77.7%
Gli-Luc/MEF cells
  IC50: 246 nM

## Cc1cccnc1-c1cc(N2CCC(NC(=O)CN(C)C)CC2)ncc1Cl [Example A-31, N-(1-(5′-chloro-3-methyl-[2,4′-bipyridin]-2′-yl)piperidin-4-yl)-2-(dimethylamino)acetamide]
Human Smo
  IC50: 43.4 nM
  inhibition at 0.05 µM: 89.2%
Gli-Luc/MEF cells
  IC50: 20.8 nM

## COC(=O)NC1CCN(c2cc(-c3ncccc3C)c(Cl)cn2)CC1 [Example A-32, methyl [1-(5′-chloro-3-methyl-2,4′-bipyridin-2′-yl)piperidin-4-yl]carbamate]
Human Smo
  IC50: 77.9 nM
  inhibition at 0.05 µM: 86.6%
Gli-Luc/MEF cells
  IC50: 27.4 nM

## Cc1cccnc1-c1nc(N2CCN(S(C)(=O)=O)CC2)ncc1Cl [Example A-33, 5-chloro-4-(3-methylpyridin-2-yl)-2-[4-(methylsulfonyl)piperazin-1-yl]pyrimidine]
Human Smo
  IC50: 172 nM
  inhibition at 0.05 µM: 76.9%
Gli-Luc/MEF cells
  IC50: 113 nM

## Cc1cccnc1-c1nc(N2CCC(NS(C)(=O)=O)CC2)ncc1Cl [Example A-34, N-{1-[5-chloro-4-(3-methylpyridin-2-yl)pyrimidin-2-yl]piperidin-4-yl}methanesulfonamide]
Human Smo
  IC50: 24.4 nM
  inhibition at 0.05 µM: 94.8%
Gli-Luc/MEF cells
  IC50: 20.9 nM

## CC(=O)NC1CCN(c2cc(-c3ncccc3C)c(Cl)cn2)CC1 [Example A-35, N-[1-(5′-chloro-3-methyl-2,4′-bipyridin-2′-yl)piperidin-4-yl]acetamide]
Human Smo
  IC50: 199 nM
  inhibition at 0.05 µM: 70.6%
Gli-Luc/MEF cells
  IC50: 67.7 nM

## COC(=O)N1CCN(c2ncc(Cl)c(-c3ncccc3C)n2)CC1 [Example A-36, methyl 4-[5-chloro-4-(3-methylpyridin-2-yl)pyrimidin-2-yl]piperazine-1-carboxylate]
Human Smo
  IC50: 246 nM
  inhibition at 0.05 µM: 72.7%
Gli-Luc/MEF cells
  IC50: 109 nM

## COCCOCC1CCN(c2cc(-c3ncccc3C)c(Cl)cn2)CC1 [Example A-37, 5′-chloro-2′-{4-[(2-methoxyethoxy)methyl]piperidin-1-yl}-3-methyl-2,4′-bipyridine]
Human Smo
  IC50: 209 nM
  inhibition at 0.05 µM: 71.6%
Gli-Luc/MEF cells
  IC50: 98 nM

## Cc1cccnc1-c1cc(N2CCC(OCC(C)C)CC2)ncc1Cl [Example A-38, 5′-chloro-2′-(4-isobutoxypiperidin-1-yl)-3-methyl-2,4′-bipyridine]
Human Smo
  IC50: 164 nM
  inhibition at 0.05 µM: 78.5%
Gli-Luc/MEF cells
  IC50: 60.2 nM

## CCOC(=O)N1CCN(c2cc(-c3ncccc3C)c(Cl)cn2)CC1 [Example A-39, ethyl 4-(5′-chloro-3-methyl-2,4′-bipyridin-2′-yl)piperazine-1-carboxylate]
Human Smo
  IC50: 109 nM
  inhibition at 0.05 µM: 80.7%
Gli-Luc/MEF cells
  IC50: 48.5 nM

## CCCNC(=O)COC1CCN(c2cc(-c3ncccc3C)c(Cl)cn2)CC1 [Example A-40, 2-{[1-(5′-chloro-3-methyl-2,4′-bipyridin-2′-yl)piperidin-4-yl]oxy}-N-propylacetamide]
Human Smo
  IC50: 254 nM
  inhibition at 0.05 µM: 70.2%
Gli-Luc/MEF cells
  IC50: 114 nM

## CCN(CC)C(=O)COC1CCN(c2cc(-c3ncccc3C)c(Cl)cn2)CC1 [Example A-41, 2-{[1-(5′-chloro-3-methyl-2,4′-bipyridin-2′-yl)piperidin-4-yl]oxy}-N,N-diethylacetamide]
Human Smo
  IC50: 131 nM
  inhibition at 0.05 µM: 82.3%
Gli-Luc/MEF cells
  IC50: 28.5 nM

## Cc1cccnc1-c1cc(N2CCC(OCC(=O)NC(C)(C)C)CC2)ncc1Cl [Example A-42, N-tert-butyl-2-{[1-(5′-chloro-3-methyl-2,4′-bipyridin-2′-yl)piperidin-4-yl]oxy}acetamide]
Human Smo
  IC50: 125 nM
  inhibition at 0.05 µM: 80.5%
Gli-Luc/MEF cells
  IC50: 37.1 nM

## Cc1cccnc1-c1cc(N2CCN(C(=O)C(C)(C)C)CC2)ncc1Cl [Example A-43, 5′-chloro-2′-[4-(2,2-dimethylpropanoyl)piperazin-1-yl]-3-methyl-2,4′-bipyridine]
Human Smo
  IC50: 25.5 nM
  inhibition at 0.05 µM: 95%
Gli-Luc/MEF cells
  IC50: 19.1 nM

## Cc1cccnc1-c1cc(N2CCN(C(=O)C(C)C)CC2)ncc1Cl [Example A-44, 5′-chloro-2′-(4-isobutyrylpiperazin-1-yl)-3-methyl-2,4′-bipyridine]
Human Smo
  IC50: 128 nM
  inhibition at 0.05 µM: 82.9%
Gli-Luc/MEF cells
  IC50: 80.2 nM

## CS(=O)(=O)NC1CCN(c2ncc(Cl)c(-c3ccccn3)n2)CC1 [Example A-45, N-[1-(5-chloro-4-pyridin-2-ylpyrimidin-2-yl)piperidin-4-yl]methanesulfonamide]
Human Smo
  IC50: 83.7 nM
  inhibition at 0.05 µM: 80.1%
Gli-Luc/MEF cells
  IC50: 58.2 nM

## Cc1cccnc1-c1cc(N2CCN(c3ncc(Br)cn3)CC2)ncc1Cl [Example A-46, 2′-[4-(5-bromopyrimidin-2-yl)piperazin-1-yl]-5′-chloro-3-methyl-2,4′-bipyridine]
Human Smo
  inhibition at 0.05 µM: 97.6%
Gli-Luc/MEF cells
  IC50: 21.1 nM

## Cc1cccnc1-c1cc(N2CCN(C(=O)CC(C)(C)O)CC2)ncc1Cl [Example A-47, 4-[4-(5′-chloro-3-methyl-2,4′-bipyridin-2′-yl)piperazin-1-yl]-2-methyl-4-oxobutan-2-ol]
Human Smo
  IC50: 21.7 nM
  inhibition at 0.05 µM: 95.2%
Gli-Luc/MEF cells
  IC50: 36.3 nM

## Cc1cccnc1-c1cc(N2CCC(CNS(C)(=O)=O)CC2)ncc1Cl [Example A-48, N-{[1-(5′-chloro-3-methyl-2,4′-bipyridin-2′-yl)piperidin-4-yl]methyl}methanesulfonamide]
Human Smo
  IC50: 57 nM
  inhibition at 0.05 µM: 82%
Gli-Luc/MEF cells
  IC50: 48 nM

## Cc1cccnc1-c1cc(N2CCC(NCCS(C)(=O)=O)CC2)ncc1Cl [Example A-49, 1-(5′-chloro-3-methyl-2,4′-bipyridin-2′-yl)-N-[2-(methylsulfonyl)ethyl]piperidin-4-amine]
Human Smo
  IC50: 39 nM
  inhibition at 0.05 µM: 87%
Gli-Luc/MEF cells
  IC50: 44 nM

## Cc1cccnc1-c1ccnc(N2CCC(NS(C)(=O)=O)CC2)n1 [Example A-50, N-{1-[4-(3-methylpyridin-2-yl)pyrimidin-2-yl]piperidin-4-yl}methanesulfonamide]
Human Smo
  IC50: 17.7 nM
  inhibition at 0.05 µM: 97.1%
Gli-Luc/MEF cells
  IC50: 27.4 nM
